This is an account of results in patent publication US6489318B1, “Ethylidene derivatives of tricyclic carbapenems” (LEK, tovarna farmacevtskih in kemicnih izdelkov, d.d., priority 1996, dated 2002).

Each structure is given as a SMILES string.

This assay concerns β-lactamase of Escherichia coli 3.5.2.6. The assay can be described thus: Hydrolysis of nitrocefin with β-lactamase in the presence of inhibitors (spectrophotometric, 495 nm). The class given is biochemical. To be noted: substrate nitrocefin 190 μmole/l; inhibitor 10 μmole/l. On the procedure:
Determination of inhibitory action of the compounds of the formula I upon the enzyme β-lactamase
The inhibitory action of the compounds of the formula I was determined according to standard methodology (Bush, K. and Sykes, R. B. Methods of Enzymatic Analysis, Third Edition, Vol. 4, p. 280, Verlag Chemie GmbH, Weinheim, 1984). The method comprises a spectrophotometric quantitative (band at 495 nm) measurement of catalytic action of the enzyme β-lactamase from the E. coli EC 3.5.2.6 strain. As a substrate nitrocefin ((7R)-3-((E)-2,4-dinitrostiryl)-7-(2-thienylacetamido)-3-cefem-4-carboxylic acid) was used which has the broadest spectrum of susceptibility and sensibility. The hydrolysis of nitrocefin in the presence of an inhibitor of the enzyme β-lactamase was determined.
Hydrolysis of nitrocefin with β-lactamase of Escherichia coli 3.5.2.6 in the presence of inhibitors

For the molecule `C/C=C1/C(=O)N2C(C(=O)O)=C3CCSC[C@H]3[C@H]12` [compound A, sodium (8R,9R)-10-((E)-ethylidene)-11-oxo-1-aza-6-thiatricyclo[7.2.0.0^3,8]undec-2-ene-2-carboxylate], the “Inhibitory activity (%)” value came to 38%.

In the case of `C/C=C1/C(=O)N2C(C(=O)[O-])=C3CCCC[C@@H]3[C@H]12.[Na+]` [compound B, sodium (8S,9R)-10-((E)-ethylidene)-11-oxo-1-azatricyclo[7.2.0.0^3,8]undec-2-ene-2-carboxylate], the “Inhibitory activity (%)” value is recorded as 23%.

For `CC1(C)[C@H](C(=O)O)N2C(=O)C[C@H]2S1(=O)=O` [sulbactam, reference compound], the “Inhibitory activity (%)” value turned out to be 50%.
